Data taken from patent US12234245B2, “Sulfonimidamide compounds as inhibitors of interleukin-1 activity” (Genentech, Inc., priority 2018, dated 2025).

Molecular target: NLRP3 inflammasome (Homo sapiens, UniProt Q96P20)
Experiment: THP-1 ASC-GFP speck assay
Format: cell-based
Design: host or cells: THP-1 ASC-GFP cells, PMA-differentiated, LPS-primed, nigericin-stimulated
Details: THP-1 ASC-GFP cells, PMA differentiated, LPS primed, 10 μM nigericin; read-out: THP1 ASC Speck IC50
Experimental: THP-1 ASC-GFP cell line was purchased from Invivogen, San Diego, for inflammasome activation assay. THP-1 ASC-GFP cells stably express a 37.6 kDa ASC::GFP fusion protein that enables monitoring of spec formation by microscopy after activation of NLRP3 dependent inflammasome pathway. Cells were maintained at a density of 600,000 cells/mL in growth media consisting of RPMI 1640, 2 mM L-glutamine, 25 mM HEPES and 10% heat inactivated fetal bovine serum at 37° C. and 5% CO2. Cells were passaged every 3-4 days and used for assays for up to 20 passages.
THP-1 ASC-GFP cells were collected by centrifuging cells at 800 RPM for 5 minutes. Cell culture supernatant was removed and cells were re-suspended in fresh media at density of 1×10^6 cells/mL in assay media consisting of RPMI 1640, 2 mM L-glutamine, 25 mM HEPES and 10% heat inactivated fetal bovine serum. Phorbol 12-myristate 13-acetate (PMA) (Invivogen, tlrl-pma) was added to the cell suspension at a final concentration of 500 ng/ml and mixed thoroughly. 40,000 cells were added per well of a 384 well plate and differentiated into macrophages overnight at 37° C. and 5% CO2. Cells were primed with 1 μg/mL of lipopolysaccharide (Invivogen Ultrapure lipopolysaccharide from E. coli, tlrl-3pelps) in assay media for 3 hours at 37° C. and 5% CO2. After priming, media was removed and THP-1 ASC-GFP cells were preincubated with serially diluted test compounds with starting concentration of 40 μM followed by 2-fold dilution for a 20-point curve or vehicle (DMSO) for 30 min in assay media at 37° C. and 5% CO2. Cells were then stimulated with 10 μM nigericin (Invivogen, tlrl-nig-5) for 90 min at 37° C. and 5% CO2 to activate NLRP3 dependent inflammasome pathway and spec formation. After stimulation, cells were fixed with 4.8% paraformaldehyde (Electron Microscopy Sciences #15710-S) and incubated at room temperature for 15 min. Cells were then washed 3-times with 100 μL of phosphate buffered saline and permeabilized in the presence of premeablization/block buffer for 20 min at room temperature. Cells were then washed 3-times with 100 μL phosphate buffered saline and incubated for 1 hr at room temperature in the presence of hoechst. After staining with Hoechst, cells were washed 3-times with 100 μL phosphate buffered saline and imaged for ASC spec formation.
THP-1 ASC-GFP cells were imaged in 488 and Hoechst channels. Hoechst channel was used for cell count and 488 channel was used to identify number of GFP ASC specks in imaged fields. Percentage of cells with a spec was calculated by dividing the number of GFP positive spots by total number of cells.

NLRP3 inflammasome, sequence (Q96P20 whole entry): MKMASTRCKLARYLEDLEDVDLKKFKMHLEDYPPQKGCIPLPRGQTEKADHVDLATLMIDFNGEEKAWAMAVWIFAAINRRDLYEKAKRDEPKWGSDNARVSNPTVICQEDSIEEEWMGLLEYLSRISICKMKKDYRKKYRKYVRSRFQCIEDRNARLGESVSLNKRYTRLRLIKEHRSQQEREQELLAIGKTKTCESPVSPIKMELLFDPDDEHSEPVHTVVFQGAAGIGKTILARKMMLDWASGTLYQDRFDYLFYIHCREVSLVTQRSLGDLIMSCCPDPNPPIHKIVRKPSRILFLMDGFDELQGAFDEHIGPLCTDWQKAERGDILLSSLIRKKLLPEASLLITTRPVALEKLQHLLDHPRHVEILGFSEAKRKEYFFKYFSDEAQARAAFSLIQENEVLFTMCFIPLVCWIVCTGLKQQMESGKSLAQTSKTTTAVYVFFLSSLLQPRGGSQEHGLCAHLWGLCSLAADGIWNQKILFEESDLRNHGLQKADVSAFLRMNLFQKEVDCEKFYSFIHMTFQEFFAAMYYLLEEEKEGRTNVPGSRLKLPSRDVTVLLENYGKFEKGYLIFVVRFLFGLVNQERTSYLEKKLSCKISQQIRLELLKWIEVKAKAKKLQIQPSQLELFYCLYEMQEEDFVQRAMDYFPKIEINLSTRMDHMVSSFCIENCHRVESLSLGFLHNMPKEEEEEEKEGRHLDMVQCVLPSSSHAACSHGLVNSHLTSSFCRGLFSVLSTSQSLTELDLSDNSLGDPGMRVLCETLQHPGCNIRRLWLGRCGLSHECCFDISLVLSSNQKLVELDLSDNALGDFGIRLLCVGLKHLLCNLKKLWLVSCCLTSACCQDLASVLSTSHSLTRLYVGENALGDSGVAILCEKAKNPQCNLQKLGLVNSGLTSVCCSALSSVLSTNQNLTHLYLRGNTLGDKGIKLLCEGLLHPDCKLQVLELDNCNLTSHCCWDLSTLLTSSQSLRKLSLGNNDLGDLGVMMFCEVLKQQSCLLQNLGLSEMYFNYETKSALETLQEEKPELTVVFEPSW

Compound	IC50 [µM]
CC1(C)COc2c(S(=O)(=NC(=O)Nc3c4c(cc5c3CCC5)CCC4)NC#N)cnn2C1 (racemic) [Example 94, N-cyano-N′-((1,2,3,5,6,7-hexahydro-s-indacen-4-yl)carbamoyl)-6,6-dimethyl-6,7-dihydro-5H-pyrazolo[5,1-b][1,3]oxazine-3-sulfonimidamide]	0.36
NS(=O)(=NC(=O)Nc1c2c(cc3c1CCC3)CCC2)c1cnn2c1COCCC2 (single isomer, unassigned) [Example 61]	> 20
NS(=O)(=NC(=O)Nc1c2c(cc3c1CCC3)CCC2)c1cnn2c1COCCC2 (single isomer, unassigned) [Example 62]	0.92
CC1CCOc2c(S(N)(=O)=NC(=O)Nc3c4c(cc5c3CCC5)CCC4)cnn2C1 (single isomer, unassigned) [Example 65]	0.34
N#CNS(=O)(=NC(=O)Nc1c2c(cc3c1CCC3)CCC2)c1cnn2c1OCCC2 (single isomer, unassigned) [Example 69]	0.03
CNCCOc1cc(C(C)C)c(NC(=O)N=S(N)(=O)c2cnn3c2OCCC3)c(C(C)C)n1 (single isomer, unassigned) [Example 70]	> 20
CNCCOc1cc(C(C)C)c(NC(=O)N=S(N)(=O)c2cnn3c2OCCC3)c(C(C)C)n1 (single isomer, unassigned) [Example 71]	> 20
NS(=O)(=NC(=O)Nc1c2c(cc3c1CCC3)CCC2)c1cnn2c1NCCC2 (single isomer, unassigned) [Example 72]	2.5
NS(=O)(=NC(=O)Nc1c2c(cc3c1CCC3)CCC2)c1cnn2c1NCCC2 (single isomer, unassigned) [Example 73]	> 20
CC1CCn2ncc(S(N)(=O)=NC(=O)Nc3c4c(cc5c3CCC5)CCC4)c2OC1 (single isomer, unassigned) [Example 74]	> 20
CC1CCn2ncc(S(N)(=O)=NC(=O)Nc3c4c(cc5c3CCC5)CCC4)c2OC1 (single isomer, unassigned) [Example 75]	15
COc1cc(C(C)C)c(NC(=O)N=S(N)(=O)c2cnn3c2OCC(C)(C)C3)c(C(C)C)n1 (single isomer, unassigned) [Example 76]	2.6
COc1cc(C(C)C)c(NC(=O)N=S(N)(=O)c2cnn3c2OCC(C)(C)C3)c(C(C)C)n1 (single isomer, unassigned) [Example 77]	> 20
CC1CCn2ncc(S(N)(=O)=NC(=O)Nc3c4c(cc5c3CCC5)CCC4)c2OC1 (single isomer, unassigned) [Example 78]	0.093
CC1CCn2ncc(S(N)(=O)=NC(=O)Nc3c4c(cc5c3CCC5)CCC4)c2OC1 (single isomer, unassigned) [Example 79]	1
CC1(C)COc2c(S(N)(=O)=NC(=O)Nc3c4c(cc5c3CCC5)CCC4)cnn2C1 (single isomer, unassigned) [Example 80]	4.5
CC1(C)COc2c(S(N)(=O)=NC(=O)Nc3c4c(cc5c3CCC5)CCC4)cnn2C1 (single isomer, unassigned) [Example 81]	0.02
CNC1COc2c(S(N)(=O)=NC(=O)Nc3c4c(c(F)c5c3CCC5)CCC4)cnn2C1 (single isomer, unassigned) [Example 82]	0.27
CNC1COc2c(S(N)(=O)=NC(=O)Nc3c4c(c(F)c5c3CCC5)CCC4)cnn2C1 (single isomer, unassigned) [Example 83]	0.008
CNCc1cc(C(C)C)c(NC(=O)N=S(N)(=O)c2cnn3c2OCCC3)c(C(C)C)n1 (single isomer, unassigned) [Example 84]	> 20
CNCc1cc(C(C)C)c(NC(=O)N=S(N)(=O)c2cnn3c2OCCC3)c(C(C)C)n1 (single isomer, unassigned) [Example 85]	> 20
COC1CCn2ncc(S(N)(=O)=NC(=O)Nc3c4c(cc5c3CCC5)CCC4)c2OC1 (single isomer, unassigned) [Example 86]	> 20
COC1CCn2ncc(S(N)(=O)=NC(=O)Nc3c4c(cc5c3CCC5)CCC4)c2OC1 (single isomer, unassigned) [Example 87]	2.9
